One experiment addresses human Cav2.2 (Homo sapiens, UniProt Q00975). Description: Assessment of calcium channel activity using FLIPR (Ca2+ influx in IMR32 cells). The class given is cell-based.
Conditions: not given
The protocol: (i) In Vitro Methods—Assessment of Calcium Channel Activity Using FLIPR:
The IMR32 cells were maintained in MEM media containing 10% (v/v) FBS, 1% (v/v) antibiotic/antimitotic, 1% (v/v) sodium pyruvate and 1% (v/v) MEM NEAA. Following dissociation in 0.05% (v/v) trypsin/EDTA, cells were seeded into black 1×96-well plates (Corning Cellbind) at a density of 1−1.2×10^5 cells/well and incubated in the maintenance media above for 48 hours at 37° C. […] To determine the IC50 values, the percent inhibition of the compound at each concentration was determined relative to the activity in the absence of inhibitor, and data was fitted using non-linear regression sigmoidal dose response curve analysis with GraphPad Prism®.
Sequence of human Cav2.2 (Q00975 whole entry): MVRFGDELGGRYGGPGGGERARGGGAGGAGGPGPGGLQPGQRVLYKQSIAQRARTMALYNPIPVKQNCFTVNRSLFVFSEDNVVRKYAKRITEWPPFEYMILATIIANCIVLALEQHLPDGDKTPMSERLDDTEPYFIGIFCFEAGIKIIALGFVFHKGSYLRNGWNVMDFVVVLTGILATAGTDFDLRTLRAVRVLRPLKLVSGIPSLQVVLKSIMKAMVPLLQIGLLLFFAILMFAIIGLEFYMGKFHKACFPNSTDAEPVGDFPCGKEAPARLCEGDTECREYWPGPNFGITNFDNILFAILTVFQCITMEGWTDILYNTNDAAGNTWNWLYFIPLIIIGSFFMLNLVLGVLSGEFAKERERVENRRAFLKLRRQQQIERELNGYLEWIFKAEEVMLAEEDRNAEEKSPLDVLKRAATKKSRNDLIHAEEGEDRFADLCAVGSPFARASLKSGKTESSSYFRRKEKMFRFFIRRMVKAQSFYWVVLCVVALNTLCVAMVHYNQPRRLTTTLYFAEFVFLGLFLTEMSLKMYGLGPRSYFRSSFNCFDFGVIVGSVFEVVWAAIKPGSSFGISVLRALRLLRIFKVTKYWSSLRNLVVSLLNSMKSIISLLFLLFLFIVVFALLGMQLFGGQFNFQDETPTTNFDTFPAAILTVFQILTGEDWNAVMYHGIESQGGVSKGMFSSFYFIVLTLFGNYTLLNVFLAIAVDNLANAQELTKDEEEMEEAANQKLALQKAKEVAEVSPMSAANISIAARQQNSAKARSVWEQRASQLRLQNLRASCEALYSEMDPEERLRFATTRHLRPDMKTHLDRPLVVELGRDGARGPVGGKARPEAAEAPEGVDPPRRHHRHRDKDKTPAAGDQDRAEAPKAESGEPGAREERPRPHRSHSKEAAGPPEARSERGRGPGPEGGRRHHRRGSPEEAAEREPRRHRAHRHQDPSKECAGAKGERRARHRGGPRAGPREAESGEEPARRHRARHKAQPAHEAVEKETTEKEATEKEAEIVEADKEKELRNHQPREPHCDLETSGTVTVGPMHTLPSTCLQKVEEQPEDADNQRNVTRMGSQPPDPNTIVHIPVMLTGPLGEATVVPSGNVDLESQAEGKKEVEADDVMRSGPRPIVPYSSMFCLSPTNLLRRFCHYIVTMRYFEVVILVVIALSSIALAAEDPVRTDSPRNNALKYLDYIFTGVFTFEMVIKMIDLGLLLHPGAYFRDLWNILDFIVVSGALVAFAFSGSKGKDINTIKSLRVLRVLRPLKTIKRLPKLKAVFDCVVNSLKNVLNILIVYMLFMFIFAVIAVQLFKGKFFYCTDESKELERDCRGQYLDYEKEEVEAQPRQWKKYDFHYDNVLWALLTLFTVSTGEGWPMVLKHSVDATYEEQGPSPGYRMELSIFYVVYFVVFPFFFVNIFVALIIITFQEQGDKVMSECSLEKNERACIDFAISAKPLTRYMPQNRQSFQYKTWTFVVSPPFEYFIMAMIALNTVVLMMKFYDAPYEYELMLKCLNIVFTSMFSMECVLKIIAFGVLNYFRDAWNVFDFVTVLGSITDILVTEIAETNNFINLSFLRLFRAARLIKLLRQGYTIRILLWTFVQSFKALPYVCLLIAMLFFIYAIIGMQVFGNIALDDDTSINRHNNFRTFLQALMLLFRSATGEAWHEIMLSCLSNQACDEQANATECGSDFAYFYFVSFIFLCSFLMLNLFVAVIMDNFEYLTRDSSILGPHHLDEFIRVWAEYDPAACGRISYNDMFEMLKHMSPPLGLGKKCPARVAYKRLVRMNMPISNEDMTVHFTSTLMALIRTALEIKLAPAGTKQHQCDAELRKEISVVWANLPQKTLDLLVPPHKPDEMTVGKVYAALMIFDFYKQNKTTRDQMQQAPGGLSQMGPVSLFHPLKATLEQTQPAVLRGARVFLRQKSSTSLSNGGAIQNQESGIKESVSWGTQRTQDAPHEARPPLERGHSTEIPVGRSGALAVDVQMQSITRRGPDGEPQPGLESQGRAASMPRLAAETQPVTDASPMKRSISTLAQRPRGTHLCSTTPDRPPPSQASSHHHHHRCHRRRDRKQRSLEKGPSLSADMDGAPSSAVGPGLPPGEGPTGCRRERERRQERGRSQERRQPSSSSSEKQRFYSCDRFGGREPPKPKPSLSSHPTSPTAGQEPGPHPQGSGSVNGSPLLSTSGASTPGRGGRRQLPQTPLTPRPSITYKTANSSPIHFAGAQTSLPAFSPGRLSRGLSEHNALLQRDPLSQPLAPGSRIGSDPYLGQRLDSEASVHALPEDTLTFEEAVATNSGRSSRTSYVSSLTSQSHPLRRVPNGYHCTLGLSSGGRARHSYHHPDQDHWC
Sequence of human Cav2.2 (P54289 25-956 partner limits assumed): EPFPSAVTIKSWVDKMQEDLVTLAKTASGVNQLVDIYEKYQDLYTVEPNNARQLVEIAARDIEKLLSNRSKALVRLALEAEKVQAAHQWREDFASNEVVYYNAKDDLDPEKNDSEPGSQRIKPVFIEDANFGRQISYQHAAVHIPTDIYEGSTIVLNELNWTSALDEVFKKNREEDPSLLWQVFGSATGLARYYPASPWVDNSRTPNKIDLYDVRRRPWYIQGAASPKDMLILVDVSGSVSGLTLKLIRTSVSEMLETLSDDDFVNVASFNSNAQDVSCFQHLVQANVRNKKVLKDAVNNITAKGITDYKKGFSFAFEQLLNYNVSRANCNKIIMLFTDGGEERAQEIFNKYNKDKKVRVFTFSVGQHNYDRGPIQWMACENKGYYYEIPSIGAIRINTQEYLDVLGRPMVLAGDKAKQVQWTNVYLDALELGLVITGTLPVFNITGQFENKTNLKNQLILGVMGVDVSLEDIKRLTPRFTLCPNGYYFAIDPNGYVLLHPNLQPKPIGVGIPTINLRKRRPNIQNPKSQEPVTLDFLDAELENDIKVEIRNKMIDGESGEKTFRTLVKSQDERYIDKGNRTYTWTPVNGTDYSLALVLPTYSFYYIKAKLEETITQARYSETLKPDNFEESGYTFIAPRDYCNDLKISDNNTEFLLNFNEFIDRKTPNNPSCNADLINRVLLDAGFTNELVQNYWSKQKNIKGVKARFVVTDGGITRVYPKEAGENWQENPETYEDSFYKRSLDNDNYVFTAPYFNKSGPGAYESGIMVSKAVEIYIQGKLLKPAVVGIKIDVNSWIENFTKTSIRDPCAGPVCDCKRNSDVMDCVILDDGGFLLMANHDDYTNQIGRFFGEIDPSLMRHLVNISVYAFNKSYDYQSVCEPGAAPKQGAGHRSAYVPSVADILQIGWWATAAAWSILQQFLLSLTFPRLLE
Sequence of human Cav2.2 (P54289 957-1103 partner limits assumed): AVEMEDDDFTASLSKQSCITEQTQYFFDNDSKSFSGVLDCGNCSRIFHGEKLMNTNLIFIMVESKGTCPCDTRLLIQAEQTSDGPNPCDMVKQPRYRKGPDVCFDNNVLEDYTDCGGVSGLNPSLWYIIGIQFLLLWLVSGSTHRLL
Sequence of human Cav2.2 (P54284 whole entry partner): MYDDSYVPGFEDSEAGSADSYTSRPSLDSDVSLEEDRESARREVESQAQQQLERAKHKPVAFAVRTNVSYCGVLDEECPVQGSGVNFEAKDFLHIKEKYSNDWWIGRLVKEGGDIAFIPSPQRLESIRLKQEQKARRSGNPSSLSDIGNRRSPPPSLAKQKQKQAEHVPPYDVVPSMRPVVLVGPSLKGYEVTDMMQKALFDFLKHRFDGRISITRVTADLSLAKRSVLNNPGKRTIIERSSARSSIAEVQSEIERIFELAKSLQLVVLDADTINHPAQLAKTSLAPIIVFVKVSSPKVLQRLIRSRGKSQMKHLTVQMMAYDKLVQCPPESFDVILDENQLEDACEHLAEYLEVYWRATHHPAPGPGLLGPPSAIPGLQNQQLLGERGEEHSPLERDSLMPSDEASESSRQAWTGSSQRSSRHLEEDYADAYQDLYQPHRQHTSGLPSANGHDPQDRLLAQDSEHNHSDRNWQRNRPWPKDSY
The term IC50 denotes the concentration that gives 50% inhibition. Take `O=C(N[C@H]1CC[C@H]2CN(Cc3ccccc3)C[C@H]21)C1(c2ccccc2)CCCC1` (relative stereo) [Example 1, N-[(3aS*,4S*,6aR*)-2-benzyloctahydrocyclopenta[c]pyrrol-4-yl]-1-phenylcyclopentanecarboxamide]: the IC50 came to 1.93 µM.
As for `O=C(N[C@@H]1CC[C@@H]2CN(Cc3ccccc3)C[C@@H]21)C(c1ccccc1)C1CCCCC1` (relative stereo) [Example 3, N-[(3aR*,4R*,6aS*)-2-benzyloctahydrocyclopenta[c]pyrrol-4-yl]-2-cyclohexyl-2-phenylacetamide], the IC50 came out at 1.06 µM.
Consider `CC(C)C(C(=O)N[C@@H]1CC[C@@H]2CN(Cc3ccccc3)C[C@@H]21)c1ccccc1` (relative stereo) [Example 5, N-[(3aR*,4R*,6aS*)-2-benzyloctahydrocyclopenta[c]pyrrol-4-yl]-3-methyl-2-phenylbutanamide], for which the IC50 was determined as 1.46 µM.
Same read-out and setting: next, `O=C(N[C@H]1CC[C@H]2CN(Cc3ccccc3)C[C@H]21)C(c1ccccc1)C1CCCC1` (relative stereo) [Example 7, N-[(3aS*,4S*,6aR*)-2-benzyloctahydrocyclopenta[c]pyrrol-4-yl]-2-cyclopentyl-2-phenylacetamide]: 0.92 µM; `O=C(N[C@H]1CC[C@H]2CN(Cc3ccccc3)C[C@H]21)C1(c2ccccc2)CCCCC1` (relative stereo) [Example 9, N-[(3aS*,4S*,6aR*)-2-benzyloctahydrocyclopenta[c]pyrrol-4-yl]-1-phenylcyclohexanecarboxamide]: 1.04 µM; `O=C(N[C@H]1CC[C@H]2CN(Cc3ccccc3)C[C@H]21)C(C1CCCCC1)C1CCCCC1` (relative stereo) [Example 11, N-[(3aS*,4S*,6aR*)-2-benzyloctahydrocyclopenta[c]pyrrol-4-yl]-2,2-dicyclohexylacetamide]: 4.67 µM.
For `C[C@H](C(=O)N[C@H]1CC[C@H]2CN(Cc3ccccc3)C[C@H]21)c1cccc(C(=O)c2ccccc2)c1` (relative stereo) [Example 12, (2S)-2-(3-benzoylphenyl)-N-[(3aS*,4S*,6aR*)-2-benzyloctahydrocyclopenta[c]pyrrol-4-yl]propanamide], the IC50 was 1.22 µM.
For the compound `CC(C)C(C(=O)N[C@H]1CC[C@H]2CN(Cc3cccc(C(F)(F)F)c3)C[C@H]21)c1ccccc1` (relative stereo) [Example 122, 3-methyl-2-phenyl-N-{(3aS*,4S*,6aR*)-2-[3-(trifluoromethyl)benzyl]octahydrocyclopenta[c]pyrrol-4-yl}butanamide], the IC50 came out at 0.36 µM.
For `CC(C)(C)C(C(=O)N[C@H]1CC[C@H]2CN(Cc3cccc(C(F)(F)F)c3)C[C@H]21)c1ccccc1` (relative stereo) [Example 123, 3,3-dimethyl-2-phenyl-N-{(3aS*,4S*,6aR*)-2-[3-(trifluoromethyl)benzyl]octahydrocyclopenta[c]pyrrol-4-yl}butanamide], the IC50 was 0.57 µM.
With `O=C(N[C@H]1CC[C@H]2CN(Cc3cccc(C(F)(F)F)c3)C[C@H]21)C(C1CCCCC1)C1CCCCC1` (relative stereo) [Example 124, 2,2-dicyclohexyl-N-{(3aS*,4S*,6aR*)-2-[3-(trifluoromethyl)benzyl]octahydrocyclopenta[c]pyrrol-4-yl}acetamide], the IC50 came to 1.07 µM.
On the same count and under the same terms, next, `CCC(CC)C(=O)N[C@H]1CC[C@H]2CN(Cc3cccc(C(F)(F)F)c3)C[C@H]21` (relative stereo) [Example 125, 2-ethyl-N-{(3aS*,4S*,6aR*)-2-[3-(trifluoromethyl)benzyl]octahydrocyclopenta[c]pyrrol-4-yl}butanamide]: 2.07 µM; `CCCC(CCC)C(=O)N[C@H]1CC[C@H]2CN(Cc3cccc(C(F)(F)F)c3)C[C@H]21` (relative stereo) [Example 126, 2-propyl-N-{(3aS*,4S*,6aR*)-2-[3-(trifluoromethyl)benzyl]octahydrocyclopenta[c]pyrrol-4-yl}pentanamide]: 0.95 µM.
On to `O=C(N[C@H]1CC[C@H]2CN(Cc3cccc(C(F)(F)F)c3)C[C@H]21)C1CCCCC1` (relative stereo) [Example 127, N-{(3aS*,4S*,6aR*)-2-[3-(trifluoromethyl)benzyl]octahydrocyclopenta[c]pyrrol-4-yl}cyclohexanecarboxamide], for which the IC50 came out at 1.26 µM.
On the same count and under the same terms, next, `O=C(N[C@H]1CC[C@H]2CN(Cc3cccc(C(F)(F)F)c3)C[C@H]21)C1CCCCCC1` (relative stereo) [Example 128, N-{(3aS*,4S*,6aR*)-2-[3-(trifluoromethyl)benzyl]octahydrocyclopenta[c]pyrrol-4-yl}cycloheptanecarboxamide]: 0.56 µM.
Turning to `O=C(N[C@H]1CC[C@H]2CN(Cc3cccc(C(F)(F)F)c3)C[C@H]21)C1CCCC1` (relative stereo) [Example 129, N-{(3aS*,4S*,6aR*)-2-[3-(trifluoromethyl)benzyl]octahydrocyclopenta[c]pyrrol-4-yl}cyclopentanecarboxamide], the IC50 came out at 2.31 µM.
On to `O=C(CC(c1ccccc1)c1ccccc1)N[C@H]1CC[C@H]2CN(Cc3cccc(C(F)(F)F)c3)C[C@H]21` (relative stereo) [Example 131, 3,3-diphenyl-N-{(3aS*,4S*,6aR*)-2-[3-(trifluoromethyl)benzyl]octahydrocyclopenta[c]pyrrol-4-yl}propanamide], for which the IC50 was 0.66 µM.
Regarding `O=C(N[C@H]1CC[C@H]2CN(Cc3cccc(C(F)(F)F)c3)C[C@H]21)C(c1ccccc1)c1ccccc1` (relative stereo) [Example 135, 2,2-diphenyl-N-{(3aS*,4S*,6aR*)-2-[3-(trifluoromethyl)benzyl]octahydrocyclopenta[c]pyrrol-4-yl}acetamide], the IC50 worked out at 0.67 µM.
Consider `O=C(N[C@H]1CC[C@H]2CN(Cc3cccc(C(F)(F)F)c3)C[C@H]21)C(c1ccc(F)cc1)c1ccc(F)cc1` (relative stereo) [Example 136, 2,2-bis(4-fluorophenyl)-N-{(3aS*,4S*,6aR*)-2-[3-(trifluoromethyl)benzyl]octahydrocyclopenta[c]pyrrol-4-yl}acetamide], for which the IC50 is 0.64 µM.

Staying with this experiment, now noted: IC50 (μM) or percent inhibition (* indicates 3 minute incubation, otherwise 60 minute), IC50; 3 minute pre-incubation (*); IMR32 cells, 80 mM KCl depolarization.
Regarding `O=C(N[C@@H]1CC[C@H]2CN(Cc3ccccc3)C[C@H]21)C(c1ccccc1)C1CCCCC1` (relative stereo) [Example 4, N-[(3aS*,4R*,6aR*)-2-benzyloctahydrocyclopenta[c]pyrrol-4-yl]-2-cyclohexyl-2-phenylacetamide], the IC50 stood at 3.5 µM.

Still in this experiment, the particulars now being: read-out: IC50 (μM) or percent inhibition (* indicates 3 minute incubation, otherwise 60 minute); IC50; 60 minute pre-incubation with compound; IMR32 cells, 80 mM KCl depolarization.
Regarding “4-methyl-N^1-{(3aR,4S,6aS)-2-[2-(methylsulfonyl)pyrimidin-5-yl]octahydrocyclopenta[c]pyrrol-4-yl}-L-leucinamide [Example 442]”, the IC50 is 7.18 µM.
As for `O=C(N[C@@H]1CC[C@H]2CN(Cc3ccccc3)C[C@H]21)C(c1ccccc1)C1CCCC1` (relative stereo) [Example 8, N-[(3aS*,4R*,6aR*)-2-benzyloctahydrocyclopenta[c]pyrrol-4-yl]-2-cyclopentyl-2-phenylacetamide], the half-inhibitory concentration (IC50) is 1.07 µM.
In the case of `C[C@H](C(=O)N[C@@H]1CC[C@H]2CN(Cc3ccccc3)C[C@H]21)c1cccc(C(=O)c2ccccc2)c1` (relative stereo) [Example 13, (2S)-2-(3-benzoylphenyl)-N-[(3aS*,4R*,6aR*)-2-benzyloctahydrocyclopenta[c]pyrrol-4-yl]propanamide], the IC50 was found to be 23.6 µM.
As for `O=C(CCCCC(c1ccc(F)cc1)c1ccc(F)cc1)N[C@H]1CC[C@H]2CN(Cc3cccc(C(F)(F)F)c3)C[C@H]21` (relative stereo) [Example 130, 6,6-bis(4-fluorophenyl)-N-{(3aS*,4S*,6aR*)-2-[3-(trifluoromethyl)benzyl]octahydrocyclopenta[c]pyrrol-4-yl}hexanamide], the IC50 worked out at 0.79 µM.
With `O=C(CCCC(c1ccc(F)cc1)c1ccc(F)cc1)N[C@H]1CC[C@H]2CN(Cc3cccc(C(F)(F)F)c3)C[C@H]21` (relative stereo) [Example 132, 5,5-bis(4-fluorophenyl)-N-{(3aS*,4S*,6aR*)-2-[3-(trifluoromethyl)benzyl]octahydrocyclopenta[c]pyrrol-4-yl}pentanamide], the IC50 was found to be 1.13 µM.
`O=C(CC(c1ccc(F)cc1)c1ccc(F)cc1)N[C@H]1CC[C@H]2CN(Cc3cccc(C(F)(F)F)c3)C[C@H]21` (relative stereo) [Example 133, 3,3-bis(4-fluorophenyl)-N-{(3aS*,4S*,6aR*)-2-[3-(trifluoromethyl)benzyl]octahydrocyclopenta[c]pyrrol-4-yl}propanamide]: the IC50 came out at 0.69 µM.
For the compound `O=C(CCC(c1ccc(F)cc1)c1ccc(F)cc1)N[C@H]1CC[C@H]2CN(Cc3cccc(C(F)(F)F)c3)C[C@H]21` (relative stereo) [Example 134, 4,4-bis(4-fluorophenyl)-N-{(3aS*,4S*,6aR*)-2-[3-(trifluoromethyl)benzyl]octahydrocyclopenta[c]pyrrol-4-yl}butanamide], the 50% inhibitory concentration (IC50) was determined as 1.15 µM.
Regarding `CC(C)C[C@H](C(=O)N[C@H]1CC[C@H]2CN(Cc3cccc(C(F)(F)F)c3)C[C@H]21)N(C)C(=O)OC(C)(C)C` (relative stereo) [Example 139, N^2-(tert-butyloxycarbonyl)-N^2-methyl-N^1-{(3aS*,4S*,6aR*)-2-[3-(trifluoromethyl)benzyl]octahydrocyclopenta[c]pyrrol-4-yl}-D-leucinamide], the IC50 was found to be 1.01 µM.

Values taken from patent US8691865B2 (AbbVie Inc., priority 2008, dated 2014).
